In this assay the target is BRD4 (Homo sapiens, UniProt O60885). The assay is described as follows: Time resolved fluorescence resonance energy transfer (TR-FRET) binding assay, bromodomain BRD4. Particulars: one of the FRET assays described; read-out: FRET BRD4 IC50.

The structures appear in SMILES notation.

Regarding `CNCCN(C)c1ccc2c3ncc(-c4c(OC)nnn4C)cc3n([C@H](c3ccccc3F)C3CCOCC3)c2n1` [Example 255, 8-[(S)-(2-Fluorophenyl)(oxan-4-yl)methyl]-5-(4-methoxy-1-methyl-1H-1,2,3-triazol-5-yl)-N-methyl-N-[2-(methylamino)ethyl]-3,8,10-triazatricyclo[7.4.0.0^2,^7]trideca-1(13),2(7),3,5,9,11-hexaen-11-amine], the IC50 is less than 10 nM.
Turning to `[2H]C([2H])([2H])c1nnn(C)c1-c1cnc2c3c(N(C)CC)ncc(S(C)(=O)=O)c3n([C@H](c3ccccc3)C3CCOCC3)c2c1` [Example 115, N-Ethyl-10-methanesulfonyl-N-methyl-5-[4-(^2H3)methyl-1-methyl-1H-1,2,3-triazol-5-yl]-8-[(S)-oxan-4-yl(phenyl)methyl]-3,8,12-triazatricyclo[7.4.0.0^2,^7]trideca-1(13),2(7),3,5,9,11-hexaen-13-amine], the IC50 was less than 1 nM.
For `COc1nccc2c3ncc(-c4c(C)nnn4C)cc3n(C(c3cccc(F)c3F)C3CCOCC3)c12` (single isomer, unassigned) [Example 23, 8-[(2,3-Difluorophenyl)(oxan-4-yl)methyl]-5-(dimethyl-1H-1,2,3-triazol-5-yl)-10-methoxy-3,8,11-triazatricyclo[7.4.0.0^2,^7]trideca-1(13),2(7),3,5,9,11-hexaene] the value was less than 1500 nM; for `Cc1nnn(C)c1-c1cnc2c3c(NS(=O)(=O)C4CC4)ncc(S(C)(=O)=O)c3n([C@H](c3ccccc3)C3CCOCC3)c2c1` [Example 97, N-[5-(Dimethyl-1H-1,2,3-triazol-5-yl)-10-methanesulfonyl-8-[(S)-oxan-4-yl(phenyl)methyl]-3,8,12-triazatricyclo[7.4.0.0^2,^7]trideca-1(13),2(7),3,5,9,11-hexaen-13-yl]cyclopropanesulfonamide], less than 1 nM; for `[2H]C([2H])([2H])c1nnn(C)c1-c1cnc2c3ccc(C4CCS(=O)(=O)CC4)nc3n([C@H](c3ccccc3)C3CCOCC3)c2c1` [Example 205, 4-{5-[4-(^2H3)Methyl-1-methyl-1H-1,2,3-triazol-5-yl]-8-[(S)-oxan-4-yl(phenyl)methyl]-3,8,10-triazatricyclo[7.4.0.0^2,^7]trideca-1(9),2(7),3,5,10,12-hexaen-11-yl}-1λ^6-thiane-1,1-dione], less than 10 nM.
For `[2H]C([2H])([2H])c1nnn(C)c1-c1cnc2c3c(OC)ncc(S(C)(=O)=O)c3n([C@H](c3ccccc3F)C3CCOCC3)c2c1` [Example 51, 8-[(S)-(2-Fluorophenyl)(oxan-4-yl)methyl]-10-methanesulfonyl-13-methoxy-5-[4-(^2H3)methyl-1-methyl-1H-1,2,3-triazol-5-yl]-3,8,12-triazatricyclo[7.4.0.0^2,^7]trideca-1(13),2(7),3,5,9,11-hexaene] the value was less than 1 nM; for `Cc1nnn(C)c1-c1cnc2c3ccc(N4CCS(=O)(=O)CC4)nc3n([C@H](c3ccccc3)C3CCOCC3)c2c1` [Example 182, 4-[5-(Dimethyl-1H-1,2,3-triazol-5-yl)-8-[(S)-oxan-4-yl(phenyl)methyl]-3,8,10-triazatricyclo[7.4.0.0^2,^7]trideca-1(9),2(7),3,5,10,12-hexaen-11-yl]-1,4-thiomorpholine-1,1-dione], less than 1 nM; for `CCOc1ncc(Cl)c2c1c1ncc(-c3c(C)nnn3C)cc1n2[C@H](c1ccccc1)C1CCOCC1` [Example 43, 10-Chloro-5-(dimethyl-1H-1,2,3-triazol-5-yl)-13-ethoxy-8-[(S)-oxan-4-yl(phenyl)methyl]-3,8,12-triazatricyclo[7.4.0.0^2,^7]trideca-1(13),2(7),3,5,9,11-hexaene], less than 1 nM.
For `COc1nnn(C)c1-c1cnc2c3ccc(-c4c(OC)nnn4C)nc3n([C@H](c3ccccc3)C3CCOCC3)c2c1` [Example 166, 5,11-Bis(4-methoxy-1-methyl-1H-1,2,3-triazol-5-yl)-8-[(S)-oxan-4-yl(phenyl)methyl]-3,8,10-triazatricyclo[7.4.0.0^2,^7]trideca-1(9),2(7),3,5,10,12-hexaene] the value was less than 10 nM; for `[2H]C([2H])([2H])c1onc(C)c1-c1cnc2c3c(OC)ncc(S(=O)(=O)C([2H])([2H])[2H])c3n(C(c3ncccc3F)C3CCOCC3)c2c1` (centres unmarked) [Example 66, 8-[(3-Fluoropyridin-2-yl)(oxan-4-yl)methyl]-10-(^2H3)methanesulfonyl-13-methoxy-5-[5-(^2H3)methyl-3-methyl-1,2-oxazol-4-yl]-3,8,12-triazatricyclo[7.4.0.0^2,^7]trideca-1(13),2(7),3,5,9,11-hexaene], less than 10 nM.
For the compound `Cc1nnn(C)c1-c1cnc2c3ccc(N4CC(O)C4)nc3n([C@H](c3ccccc3)C3CCOCC3)c2c1` [Example 179, 1-[5-(Dimethyl-1H-1,2,3-triazol-5-yl)-8-[(S)-oxan-4-yl(phenyl)methyl]-3,8,10-triazatricyclo[7.4.0.0^2,^7]trideca-1(9),2(7),3,5,10,12-hexaen-11-yl]azetidin-3-ol], the IC50 was less than 1 nM.
For `C=C(OCC)c1cc2c(cn1)c1ncc(-c3c(C)noc3C)cc1n2[C@H](c1ccc(F)cc1)C1CCOCC1` [Example 329, 5-(Dimethyl-1,2-oxazol-4-yl)-11-(1-ethoxyethenyl)-8-[(S)-(4-fluorophenyl)(oxan-4-yl)methyl]-3,8,12-triazatricyclo[7.4.0.0^2,^7]trideca-1(9),2(7),3,5,10,12-hexaene] the value was less than 10 nM.
Turning to `[2H]C([2H])([2H])c1nnn(C)c1-c1cnc2c3ccc(C4=CCS(=O)(=O)CC4)nc3n([C@H](c3ccccc3)C3CCOCC3)c2c1` [Example 204, 4-{5-[4-(^2H3)Methyl-1-methyl-1H-1,2,3-triazol-5-yl]-8-[(S)-oxan-4-yl(phenyl)methyl]-3,8,10-triazatricyclo[7.4.0.0^2,^7]trideca-1(9),2(7),3,5,10,12-hexaen-11-yl}-3,6-dihydro-2H-1λ^6-thiopyran-1,1-dione], the IC50 is less than 10 nM.
In the case of `CCCC(c1ncccc1F)n1c2cc(-c3c(C)nnn3C)ncc2c2ncc(C(C)(C)O)cc21` (single isomer, unassigned) [Example 370], the IC50 was less than 10 nM.
For the compound `COc1ccc2c3ncc(-c4c(C)nnn4C)cc3n(C(c3cccc(F)c3F)C3CCOCC3)c2n1` (racemic) [Example 17, 8-[(2,3-Difluorophenyl)(oxan-4-yl)methyl]-5-(dimethyl-1H-1,2,3-triazol-5-yl)-11-methoxy-3,8,10-triazatricyclo[7.4.0.0^2,^7]trideca-1(13),2(7),3,5,9,11-hexaene], the IC50 is less than 10 nM.
For `[2H]C([2H])([2H])c1nnn(C)c1-c1cnc2c3c(N[C@@H](C)C4CC4)ncc(S(C)(=O)=O)c3n([C@H](c3ccccc3)C3CCOCC3)c2c1` [Example 113, N-[(1S)-1-Cyclopropylethyl]-10-methanesulfonyl-5-[4-(^2H3)methyl-1-methyl-1H-1,2,3-triazol-5-yl]-8-[(S)-oxan-4-yl(phenyl)methyl]-3,8,12-triazatricyclo[7.4.0.0^2,^7]trideca-1(13),2(7),3,5,9,11-hexaen-13-amine] the value was less than 1 nM; for `[2H]C([2H])([2H])N1CCN(c2ncc3c4ncc(-c5c(C)nnn5C)cc4n([C@H](c4ccccc4)C4CCOCC4)c3n2)CC1` [Example 156, 5-(Dimethyl-1H-1,2,3-triazol-5-yl)-11-[4-(^2H3)methylpiperazin-1-yl]-8-[(S)-oxan-4-yl(phenyl)methyl]-3,8,10,12-tetraazatricyclo[7.4.0.0^2,^7]trideca-1(9),2(7),3,5,10,12-hexaene], less than 10 nM.
